In ChEMBL document CHEMBL1157472, “Synthesis of 5''-branched derivatives of cyclic ADP-carbocyclic-ribose, a potent Ca2+-mobilizing agent: The first antagonists modified at the N1-ribose moiety” (Bioorg Med Chem Lett, 2008):
Calls of active or inactive are those of the source. The rule behind the calls is not given here.

Assays:
[1] = Antagonist activity at ryanodine receptor in sea urchin egg homogenates assessed as decrease in cADPcR-induced calcium release by fluorimetry; format: functional, tissue-based, Lytechinus pictus
Lytechinus pictus = test: Agonist activity at ryanodine receptor in sea urchin egg homogenates assessed as effect on calcium release at 30 uM by fluorimetry; format: functional, tissue-based
[2] = Agonist activity at ryanodine receptor in sea urchin egg homogenates assessed as effect on calcium release by fluorimetry; format: functional, Lytechinus pictus
[3] = Stability in human serum at 37 degC after 3 days; format: ADME, cell-free; conditions: read-out: Stability

Structure (SMILES)	IC50 [1] [µM]	Activity (Lytechinus pictus)	EC50 [2] [µM]	remaining at 72 h [3] [%]
NCC[C@H]1OP(=O)([O-])OP(=O)(O)OC[C@H]2O[C@H]([C@H](O)[C@@H]2O)n2cnc3c(N)[n+](cnc32)[C@@H]2C[C@H]1[C@@H](O)[C@H]2O	73	inactive	–	–
[N-]=[N+]=NCC[C@H]1OP(=O)([O-])OP(=O)(O)OC[C@H]2O[C@H]([C@H](O)[C@@H]2O)n2cnc3c(N)[n+](cnc32)[C@@H]2C[C@H]1[C@@H](O)[C@H]2O	14	inactive	–	–
NCC[C@@H]1OP(=O)([O-])OP(=O)(O)OC[C@H]2O[C@H]([C@H](O)[C@@H]2O)n2cnc3c(N)[n+](cnc32)[C@@H]2C[C@H]1[C@@H](O)[C@H]2O	120	inactive	–	–
Nc1c2ncn3c2nc[n+]1[C@@H]1O[C@H](COP(=O)([O-])OP(=O)(O)OC[C@H]2O[C@@H]3[C@H](O)[C@@H]2O)[C@@H](O)[C@H]1O	–	–	0.21	–
[N-]=[N+]=NCC[C@@H]1OP(=O)(O)OP(=O)([O-])OC[C@H]2O[C@H]([C@H](O)[C@@H]2O)n2cnc3c(N)[n+](cnc32)[C@@H]2C[C@H]1[C@@H](O)[C@H]2O	19	inactive	–	89
Nc1c2ncn3c2nc[n+]1[C@@H]1C[C@H](COP(=O)([O-])OP(=O)(O)OC[C@H]2O[C@@H]3[C@H](O)[C@@H]2O)[C@@H](O)[C@H]1O	–	–	0.079	–
